According to ChEMBL document CHEMBL5107973, “Synthesis and structure-activity relationships of pirfenidone derivatives as anti-fibrosis agents in vitro” (RSC Med Chem, 2022):
pIC50: −log10 of the molar value.

Legend:
[1] = test system: NIH3T3; experiment: Antiproliferative activity against TGFbeta-induced mouse NIH3T3 cells assessed as cell growth inhibition incubated for 48 hrs by CCK-8 assay; assay type: functional, cell-based; conditions: NIH3T3, 48 h
[2] = test system: NIH3T3; experiment: Antiproliferative activity against TGFbeta-induced mouse NIH3T3 cells assessed as cell growth inhibition at 1 mM incubated for 48 hrs by CCK-8 assay; assay type: functional; conditions: NIH3T3, 48 h
[3] = Metabolic stability in human liver microsomes assessed as intrinsic clearance measured upto 45 mins in presence of NADPH by LC/MS analysis; assay type: ADME, Microsome; conditions: read-out: CLH
[4] = Metabolic stability in rat liver microsomes assessed as intrinsic clearance measured upto 45 mins in presence of NADPH by LC/MS analysis; assay type: ADME, Microsome; conditions: read-out: CLH
[5] = Metabolic stability in human liver microsomes assessed as half life measured upto 45 mins in presence of NADPH by LC/MS analysis; assay type: ADME, Microsome
[6] = Metabolic stability in rat liver microsomes assessed as half life measured upto 45 mins in presence of NADPH by LC/MS analysis; assay type: ADME, Microsome
[7] = test system: NIH3T3; experiment: Induction of apoptosis in TGFbeta-induced mouse NIH3T3 cells assessed as increase in apoptosis rate at 10 mM incubated for 48 hrs by Annexin V-FITC/PI staining based flow cytometry; assay type: functional
[8] = test system: NIH3T3; experiment: Anti-fibrogenic activity against mouse NIH3T3 cells assessed as inhibition of TGFbeta-induced COL1 protein expression at 0.5 to 10 mM incubated for 48 hrs by western blot assay; assay type: functional, cell-based; conditions: dose 0.5-10 mM, DDE = dose-dependent effect
[9] = test system: NIH3T3; experiment: Anti-fibrogenic activity against mouse NIH3T3 cells assessed as inhibition of TGFbeta-induced Fn protein expression at 0.5 to 10 mM incubated for 48 hrs by western blot assay; assay type: functional, cell-based; conditions: dose 0.5-10 mM, DDE = dose-dependent effect
[10] = test system: NIH3T3; experiment: Anti-fibrogenic activity against mouse NIH3T3 cells assessed as inhibition of TGFbeta-induced alpha-SMA protein expression at 0.5 to 10 mM incubated for 48 hrs by western blot assay; assay type: functional, cell-based; conditions: dose 0.5-10 mM, DDE = dose-dependent effect
[11] = Half life in rat at 2 mg/kg,iv by HPLC-UV analysis; assay type: ADME, organism-based; conditions: in vivo
[12] = Half life in rat at 10 mg/kg,po by HPLC-UV analysis; assay type: ADME, organism-based; conditions: in vivo
[13] = Tmax in rat at 2 mg/kg,iv by HPLC-UV analysis; assay type: ADME, organism-based; conditions: in vivo
[14] = Tmax in rat at 10 mg/kg,po by HPLC-UV analysis; assay type: ADME, organism-based; conditions: in vivo
[15] = Cmax in rat at 2 mg/kg,iv by HPLC-UV analysis; assay type: ADME, organism-based; set-up: dose 2 mg/kg, route iv; conditions: in vivo
[16] = Cmax in rat at 10 mg/kg,po by HPLC-UV analysis; assay type: ADME, organism-based; set-up: dose 10 mg/kg, route po; conditions: in vivo
[17] = AUC (0-t) in rat at 2 mg/kg,iv by HPLC-UV analysis; assay type: ADME, organism-based; set-up: dose 2 mg/kg, route iv; conditions: in vivo
[18] = AUC (0-t) in rat at 10 mg/kg,po by HPLC-UV analysis; assay type: ADME, organism-based; set-up: dose 10 mg/kg, route po; conditions: in vivo
[19] = AUC (0-infinity) in rat at 2 mg/kg,iv by HPLC-UV analysis; assay type: ADME, organism-based; set-up: time infinity, dose 2 mg/kg, route iv; conditions: in vivo
[20] = AUC (0-infinity) in rat at 10 mg/kg,po by HPLC-UV analysis; assay type: ADME, organism-based; set-up: time infinity, dose 10 mg/kg, route po; conditions: in vivo
[21] = MRT (0 to t) in rat at 2 mg/kg,iv by HPLC-UV analysis; assay type: ADME, organism-based; conditions: in vivo
[22] = MRT (0 to t) in rat at 10 mg/kg,po by HPLC-UV analysis; assay type: ADME, organism-based; conditions: in vivo
[23] = Oral bioavailability in rat at 10 mg/kg by HPLC-UV analysis; assay type: ADME, organism-based; conditions: in vivo
[24] = test system: NIH3T3; experiment: Anti-fibrogenic activity against mouse NIH3T3 cells assessed as inhibition of TGFbeta-induced migration rate at 0.1 to 0.4 mM incubated for 48 hrs by wound healing assay; assay type: functional, cell-based; conditions: dose 0.1-0.4 mM, DDE = dose-dependent effect
[25] = test system: NIH3T3; experiment: Induction of apoptosis in TGFbeta-induced mouse NIH3T3 cells assessed as increase in apoptosis rate at 0.05 mM incubated for 48 hrs by Annexin V-FITC/PI staining based flow cytometry; assay type: functional
[26] = test system: NIH3T3; experiment: Induction of apoptosis in TGFbeta-induced mouse NIH3T3 cells assessed as increase in apoptosis rate at 0.05 to 0.2 mM incubated for 48 hrs by Annexin V-FITC/PI staining based flow cytometry; assay type: functional, cell-based; conditions: dose 0.05-0.2 mM, DDE = dose-dependent effect
[27] = test system: NIH3T3; experiment: Anti-fibrogenic activity against mouse NIH3T3 cells assessed as inhibition of TGFbeta-induced COL1 protein expression at 0.01 to 0.2 mM incubated for 48 hrs by western blot assay; assay type: functional, cell-based; conditions: dose 0.01-0.2 mM, DDE = dose-dependent effect
[28] = test system: NIH3T3; experiment: Anti-fibrogenic activity against mouse NIH3T3 cells assessed as inhibition of TGFbeta-induced Fn protein expression at 0.01 to 0.2 mM incubated for 48 hrs by western blot assay; assay type: functional, cell-based; conditions: dose 0.01-0.2 mM, DDE = dose-dependent effect
[29] = test system: NIH3T3; experiment: Anti-fibrogenic activity against mouse NIH3T3 cells assessed as inhibition of TGFbeta-induced alpha-SMA protein expression at 0.01 to 0.2 mM incubated for 48 hrs by western blot assay; assay type: functional, cell-based; conditions: dose 0.01-0.2 mM, DDE = dose-dependent effect
[30] = test system: NIH3T3; experiment: Anti-fibrogenic activity against mouse NIH3T3 cells assessed as reduction in TGFbeta-induced Smad2 phosphorylation level at 0.01 to 0.2 mM incubated for 48 hrs by western blot assay; assay type: functional, cell-based; conditions: dose 0.01-0.2 mM, DDE = dose-dependent effect
[31] = test system: NIH3T3; experiment: Anti-fibrogenic activity against mouse NIH3T3 cells assessed as reduction in TGFbeta-induced Smad3 phosphorylation level at 0.01 to 0.2 mM incubated for 48 hrs by western blot assay; assay type: functional, cell-based; conditions: dose 0.01-0.2 mM, DDE = dose-dependent effect

Q: Which results are given for `O=C(Cc1ccccc1C(F)(F)F)Nc1ccc(=O)n(-c2ccccc2)c1`?
A: pIC50 [1]: 2.87; inhibition at 1000 µM [2]: 37.8%

Q: For `O=C(CC1CCCCC1)Nc1ccc(=O)n(-c2ccccc2)c1`, which inhibition at 1000 µM [2] is on record?
A: 4.5%

Q: What does the source list for `O=C(Cc1ccc(Br)cc1)Nc1ccc(=O)n(-c2ccccc2)c1`?
A: pIC50 [1]: 2.95; inhibition at 1000 µM [2]: 45.7%

Q: Which inhibition at 1000 µM [2] does the source give for `O=C(Cc1cccc(Br)c1)Nc1ccc(=O)n(-c2ccccc2)c1` here?
A: 2.1%

Q: For `O=C(Cc1ccccc1F)Nc1ccc(=O)n(-c2ccccc2)c1`, which inhibition at 1000 µM [2] is on record?
A: 28.7%

Q: Which results are given for `Cc1ccc(CC(=O)Nc2ccc(=O)n(-c3ccccc3)c2)c(C)c1`?
A: pIC50 [1]: 3.62; inhibition at 1000 µM [2]: 68.9%

Q: With `Cc1ccc(CC(=O)Nc2ccc(=O)n(-c3ccccc3)c2)cc1` as the compound, how does the pIC50 [1] read?
A: 3.02

Q: What about the inhibition at 1000 µM [2] of the same compound?
A: 52.2%

Q: For `O=C(Cc1cccc(F)c1)Nc1ccc(=O)n(-c2ccccc2)c1`, which inhibition at 1000 µM [2] is on record?
A: 21.9%

Q: For `Cc1cccc(CC(=O)Nc2ccc(=O)n(-c3ccccc3)c2)c1`, which inhibition at 1000 µM [2] is on record?
A: 19.8%

Q: With `Cc1ccc(=O)n(-c2ccccc2)c1` [PIRFENIDONE] as the compound, how does the pIC50 [1] read?
A: 1.86

Q: What about the CLint scaled [3] of the same compound?
A: 73.9 L/h/kg

Q: What about the CLint scaled [4] of the same compound?
A: 104 L/h/kg

Q: And the half-life [5]?
A: 5.76 min

Q: And the half-life [6]?
A: 1.46 min

Q: And the Activity [7]?
A: 31.9%

Q: What about the Activity [8] of the same compound?
A: Dde

Q: What about the Activity [9] of the same compound?
A: Dde

Q: And the Activity [10]?
A: Dde

Q: With `O=C(Cc1ccc(Cl)cc1)Nc1ccc(=O)n(-c2ccccc2)c1` as the compound, how does the pIC50 [1] read?
A: 2.87

Q: What about the inhibition at 1000 µM [2] of the same compound?
A: 37.1%

Q: With `O=C(Cc1c(F)cc(F)cc1F)Nc1ccc(=O)n(-c2ccccc2)c1` as the compound, how does the inhibition at 1000 µM [2] read?
A: 28.1%

Q: With `O=C(Cc1ccccc1Br)Nc1ccc(=O)n(-c2ccccc2)c1` as the compound, how does the pIC50 [1] read?
A: 2.96

Q: What about the inhibition at 1000 µM [2] of the same compound?
A: 48.9%

Q: Which results are given for `O=C(Cc1ccc(F)cc1)Nc1ccc(=O)n(-c2ccccc2)c1`?
A: pIC50 [1]: 2.81; inhibition at 1000 µM [2]: 39%

Q: With `Cc1cc(C)c(CC(=O)Nc2ccc(=O)n(-c3ccccc3)c2)c(C)c1` as the compound, how does the pIC50 [1] read?
A: 3.85

Q: And the inhibition at 1000 µM [2]?
A: 74.4%

Q: What about the CLint scaled [3] of the same compound?
A: 3.83 L/h/kg

Q: What about the CLint scaled [4] of the same compound?
A: 6.63 L/h/kg

Q: And the half-life [5]?
A: 27.2 min

Q: And the half-life [6]?
A: 22.5 min

Q: And the half-life [11]?
A: 41.6 min

Q: And the half-life [12]?
A: 166 min

Q: What about the Tmax [13] of the same compound?
A: 4.98 min

Q: What about the Tmax [14] of the same compound?
A: 60.7 min

Q: What about the Cmax [15] of the same compound?
A: 0.712 µg/mL

Q: What about the Cmax [16] of the same compound?
A: 0.0685 µg/mL

Q: And the AUC(0-t) [17]?
A: 0.701 µg·h/mL

Q: What about the AUC(0-t) [18] of the same compound?
A: 0.332 µg·h/mL

Q: What about the AUC [19] of the same compound?
A: 0.70117 µg·h/mL

Q: What about the AUC [20] of the same compound?
A: 0.4065 µg·h/mL

Q: What about the MRT last [21] of the same compound?
A: 51.4 min

Q: What about the MRT last [22] of the same compound?
A: 290 min

Q: What about the F [23] of the same compound?
A: 51%

Q: And the Activity [24]?
A: Dde

Q: And the Activity [25]?
A: 34.5%

Q: And the Activity [26]?
A: Dde

Q: And the Activity [27]?
A: Dde

Q: What about the Activity [28] of the same compound?
A: Dde

Q: And the Activity [29]?
A: Dde

Q: And the Activity [30]?
A: Dde

Q: What about the Activity [31] of the same compound?
A: Dde

Q: For `O=C(Cc1cccc(Cl)c1)Nc1ccc(=O)n(-c2ccccc2)c1`, which inhibition at 1000 µM [2] is on record?
A: 27.6%

Q: With `Cc1ccccc1CC(=O)Nc1ccc(=O)n(-c2ccccc2)c1` as the compound, how does the pIC50 [1] read?
A: 3.14

Q: What about the inhibition at 1000 µM [2] of the same compound?
A: 56.1%

Q: With `O=C(Cc1ccccc1Cl)Nc1ccc(=O)n(-c2ccccc2)c1` as the compound, how does the pIC50 [1] read?
A: 2.70

Q: What about the inhibition at 1000 µM [2] of the same compound?
A: 35.2%

Q: Which inhibition at 1000 µM [2] does the source give for `O=C(Nc1ccc(=O)n(-c2ccccc2)c1)c1ccccc1F` here?
A: 3.5%
